In US20040167131A1, “Inhibitors of factor Xa and other serine proteases involved in the coagulation cascade” (Pfizer Inc., priority 2002, published 2004):
Like-named read-outs stand apart in the source and are kept apart here.

Key:
canine coronary artery = canine coronary artery electrolytic lesion model; cited from earlier work
dog = conditions: adjunct to recombinant tissue plasminogen activator; cited from earlier work
rabbit = rabbit model of venous thrombosis; cited from earlier work
rat = conditions: arteriovenous shunt and venous stasis models; cited from earlier work
human factor Xa = target: T1, human factor Xa (Homo sapiens, UniProt P00742); test: Determination of Factor Xa IC50 (cleavage of fluorogenic substrate F-S2765); assay type: biochemical
T1 construct: purchased Enzyme Research Laboratories
T1 sequence (P00742 235-488 limits assumed): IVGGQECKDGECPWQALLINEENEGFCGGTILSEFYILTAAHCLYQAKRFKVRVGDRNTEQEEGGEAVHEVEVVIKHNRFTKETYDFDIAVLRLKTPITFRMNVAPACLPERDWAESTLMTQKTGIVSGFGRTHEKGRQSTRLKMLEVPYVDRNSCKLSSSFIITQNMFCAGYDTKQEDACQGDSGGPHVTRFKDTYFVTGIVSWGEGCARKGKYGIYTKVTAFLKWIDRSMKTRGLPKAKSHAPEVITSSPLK
T1 sequence (P00742 41-179 partner limits assumed): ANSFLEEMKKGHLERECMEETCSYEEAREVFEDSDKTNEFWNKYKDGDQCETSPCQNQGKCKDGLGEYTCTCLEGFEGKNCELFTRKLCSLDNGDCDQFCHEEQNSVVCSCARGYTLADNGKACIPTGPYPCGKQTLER
Protocol: The ability of compounds to act as inhibitors of human factor Xa catalytic activity was assessed by determination of that concentration of test substance that inhibited by 50% (IC50) the ability of human factor Xa to cleave the fluorogenic substrate F-S2765 (N-α-Z-D-Arg-Gly-Arg-pNA HCl, California Peptide Research). […] The IC50 was determined at 3 pM and/or 30 pM concentrations of human factor Xa (Enzyme Research Laboratories). These concentrations were achieved by diluting a stock solution of human factor Xa in the appropriate amount of buffer containing 10 mM HEPES, 150 mM NaCl, and 0.1% BSA at pH 7.4 (HBSA buffer). Accordingly, 73 μL of the factor Xa/buffer solution was added to 2.5 μL of DMSO-reconstituted compound and incubated for 55 minutes at room temperature. After warming to 37° C. for am additional 5 minutes, 50 μL of rewarmed substrate was added and the IC50 determined by monitoring the increase in absorbance at 390 nm excitation/460 nm emission (455 nm cutoff) in a fluorometric plate reader or 30 minutes.

human plasma = test: Determination of Prothrombin Time (PT); assay type: biochemical; conditions: concentration required to increase the clotting time by 2-fold, human tissue thromboplastin
Protocol: The prothrombin time (PT) is a measure of extrinsic and common pathway factors. In this assays, human tissue thromboplastin is added to human plasma which activates pathway factors, including factor X activation to factor Xa, leading to clot formation. Significant inhibition of factor Xa, by a small molecule inhibitor, will reduce the conversion of prothrombin to thrombin and thereby increase the time to clot formation in this assay. The value 2 X PT is the concentration of the inhibitor required to increase the clotting time by 2-fold.

[1] = models of arterial and venous thrombosis; cited from earlier work
[2] = 30 pM human factor Xa, read-out: FxXa 30 pM IC50

rTAP: recombinant tick anticoagulant peptide, a protein or polypeptide factor Xa inhibitor (YNRLCIKPRDWIDECDSNEGGERAYFRNGKGGCDSFWICPEDHTGADYYSSYRDCFNACI; UniProt P17726 1-60, looked up)
thrombus mass and time to occlusion (canine coronary artery): reduce thrombus mass and time to occlusion
clot lysis and reocclusion (dog): accelerate the recombinant tissue plasminogen activator mediated clot lysis and prevent acute reocclusion
fibrin deposition (rabbit): reduce fibrin deposition

CC(=N)N1CC[C@H](Oc2ccc([C@H](Cc3ccc4ccc(C(=N)N)cc4c3)C(=O)O)cc2)C1 [DX9065a]
inhibition of thrombus formation (rat): inhibition of thrombus formation was achieved at doses that had little effect on APTT

CS(=O)(=O)c1ccccc1-c1ccc(NC(=O)[C@]2(NC(=O)Nc3ccc(Cl)cc3)C[C@@H]2CO)c(F)c1 [Example 18, (1S,2S)-1-[3-(4-Chloro-phenyl)-ureido]-2-hydroxymethyl-cyclopropanecarboxylic acid (3-fluoro-2′-methanesulfonyl-biphenyl-4-yl)-amide]
IC50 (human factor Xa; [2]): 21 nM

CS(=O)(=O)c1ccccc1-c1ccc(NC(=O)C2(NC(=O)Nc3ccc(Cl)cc3)CCCC2)cc1 [Example 1, 1-[3-(4-Chloro-phenyl)-ureido]-cyclopentanecarboxylic acid (2′-methanesulfonyl-biphenyl-4-yl)-amide]
PT Conc. 2X Prolong. (human plasma): 13.45 µM
IC50 (human factor Xa; 3 pM human factor Xa, read-out: FXa 3 pM IC50): 38 nM

NS(=O)(=O)c1ccccc1-c1ccc(NC(=O)C2(NC(=O)Nc3ccc(Cl)cc3)CCOCC2)c(F)c1 [Example 16, 4-[3-(4-Chloro-phenyl)-ureido]-tetrahydro-pyran-4-carboxylic acid (3-fluoro-2′-sulfamoyl-biphenyl-4-yl)-amide]
IC50 (human factor Xa; [2]): 252 nM

CS(=O)(=O)c1ccccc1-c1ccc(NC(=O)CN(Cc2ccccc2)C(=O)Nc2ccc(Cl)cc2)c(F)c1 [Example 27, 2-[1-Benzyl-3-(4-chloro-phenyl)-ureido]-N-(3-fluoro-2′-methanesulfonyl-biphenyl-4-yl)-acetamide]
FxXa 30 pM, % @ 1 μM (human factor Xa; 30 pM human factor Xa, compound @ 1 μM): 30% @ 1 μM

B1: Antistasin: a potent inhibitor of blood coagulation factor Xa from the Mexican leech, Haementeria officinalis (protein, UniProt P15358 18-136, looked up)
Antistasin: QGPFGPGCEEAGCPEGSACNIITDRCTCSGVRCRMHCPHGFQRSRYGCEFCKCRLEPMKATCDISECPEGMMCSRLTNKCDCKIDINCRKTCPNGLKRDKLGCEYCECRPKRKLIPRLS
antithrombotic activity [1]: displays antithrombotic activity
